Data reported in ChEMBL document CHEMBL1201862, “PubChem BioAssay data set” (2004).
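Tested at 5 concentrations; 48 h exposure; 96-well plates; endpoints linearly interpolated, else capped at highest concentration. Here, GI50 denotes the concentration required for 50% inhibition of growth.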 Activity calls are given as the source filed them. Cut-off read from the data, not from the text of the source: active = GI50 up to about 1.1 µM and inactive = higher.

Experiments:
Assay in all cases: inhibition of tumour cell growth, NCI panel, 48 h
[1] = test system: ACHN
[2] = test system: HT-29
[3] = test system: NCI/ADR-RES
[4] = test system: U-251
[5] = test system: SN12C
[6] = test system: UACC-257
[7] = test system: NCI-H460
[8] = test system: SK-MEL-2
[9] = test system: HOP-92
[10] = test system: KM12
[11] = test system: TK-10
[12] = test system: RXF 393
[13] = test system: SK-MEL-28
[14] = test system: SNB-19
[15] = test system: A549
[16] = test system: SF-295
[17] = test system: IGROV-1
[18] = test system: Malme-3M
[19] = test system: SK-OV-3
[20] = test system: EKVX
[21] = test system: SF-268
[22] = test system: MDA-MB-231
[23] = test system: NCI-H226
[24] = test system: T47D
[25] = test system: UACC-62
[26] = test system: HCT-116
[27] = test system: OVCAR-3
[28] = test system: MOLT-4
[29] = test system: Hs-578T
[30] = test system: MDA-N
[31] = test system: SNB-75
[32] = test system: OVCAR-8
[33] = test system: NCI-H23
[34] = test system: UO-31
[35] = test system: SF-539
[36] = test system: OVCAR-4
[37] = test system: K562
[38] = test system: HCT-15
[39] = test system: COLO 205
[40] = test system: BT-549
[41] = test system: CAKI-1
[42] = test system: LOX IMVI
[43] = test system: SK-MEL-5
[44] = test system: A498
[45] = test system: MCF7
[46] = test system: 786-0
[47] = test system: SR
[48] = test system: RPMI-8226
[49] = test system: DU-145
[50] = test system: HL-60
[51] = test system: OVCAR-5
[52] = test system: NCI-H522
[53] = test system: HOP-62
[54] = test system: M14
[55] = test system: MDA-MB-435
[56] = test system: CCRF-CEM
[57] = test system: PC-3
[58] = test system: SW-620
[59] = test system: HCC 2998

NS(=O)(=O)c1ccc(/N=N/c2cnc(O)c(O)c2)cc1
GI50 [1]: > 100 µM (inactive)
GI50 [2]: > 100 µM (inactive)
GI50 [3]: 94.2 µM (inactive)
GI50 [4]: 20.8 µM (inactive)
GI50 [5]: 51.9 µM (inactive)
GI50 [6]: 23 µM (inactive)
GI50 [7]: > 100 µM (inactive)
GI50 [8]: 52 µM (inactive)
GI50 [9]: 81.7 µM (inactive)
GI50 [10]: 96.8 µM (inactive)
GI50 [11]: > 100 µM (inactive)
GI50 [12]: 95.3 µM (inactive)
GI50 [13]: > 100 µM (inactive)
GI50 [14]: 52.4 µM (inactive)
GI50 [15]: > 100 µM (inactive)
GI50 [16]: > 100 µM (inactive)
GI50 [17]: > 100 µM (inactive)
GI50 [18]: 29.8 µM (inactive)
GI50 [19]: > 100 µM (inactive)
GI50 [20]: > 100 µM (inactive)
GI50 [21]: 43.2 µM (inactive)
GI50 [22]: > 100 µM (inactive)
GI50 [23]: > 100 µM (inactive)
GI50 [24]: 85.7 µM (inactive)
GI50 [25]: 43.1 µM (inactive)
GI50 [26]: > 100 µM (inactive)
GI50 [27]: 28.8 µM (inactive)
GI50 [28]: 54 µM (inactive)
GI50 [29]: 66.1 µM (inactive)
GI50 [30]: > 100 µM (inactive)
GI50 [31]: 47.4 µM (inactive)
GI50 [32]: 76.2 µM (inactive)
GI50 [33]: 64 µM (inactive)
GI50 [34]: > 100 µM (inactive)
GI50 [35]: 67.5 µM (inactive)
GI50 [36]: 50 µM (inactive)
GI50 [37]: > 100 µM (inactive)
GI50 [38]: > 100 µM
GI50 [39]: 95.3 µM (inactive)
GI50 [40]: 42.5 µM (inactive)
GI50 [41]: > 100 µM (inactive)
GI50 [42]: 91.2 µM (inactive)
GI50 [43]: 78.2 µM (inactive)
GI50 [44]: > 100 µM (inactive)
GI50 [45]: 44.2 µM (inactive)
GI50 [46]: > 100 µM (inactive)
GI50 [47]: 29.6 µM (inactive)
GI50 [48]: > 100 µM (inactive)
GI50 [49]: 78.2 µM (inactive)
GI50 [50]: > 100 µM (inactive)
GI50 [51]: > 100 µM (inactive)
GI50 [52]: 14.1 µM (inactive)
GI50 [53]: > 100 µM (inactive)
GI50 [54]: 81.3 µM (inactive)
GI50 [55]: > 100 µM (inactive)
GI50 [56]: 19.6 µM (inactive)
GI50 [57]: > 100 µM (inactive)
GI50 [58]: > 100 µM (inactive)

CCCC(=O)Nc1ncnc2c1ncn2C1OC2COP(=O)(O)OC2C1OC(=O)CCC (stereo unspecified)
GI50 [1]: > 100 µM (inactive)
GI50 [2]: > 100 µM (inactive)
GI50 [3]: > 100 µM (inactive)
GI50 [4]: > 100 µM (inactive)
GI50 [5]: > 100 µM (inactive)
GI50 [6]: > 100 µM (inactive)
GI50 [59]: > 100 µM (inactive)
GI50 [7]: > 100 µM (inactive)
GI50 [8]: > 100 µM (inactive)
GI50 [9]: > 1000 µM (inactive)
GI50 [10]: > 100 µM (inactive)
GI50 [11]: > 1000 µM (inactive)
GI50 [13]: > 100 µM (inactive)
GI50 [14]: > 100 µM (inactive)
GI50 [15]: > 100 µM (inactive)
GI50 [16]: > 100 µM (inactive)
GI50 [17]: 22.5 µM (inactive)
GI50 [18]: > 100 µM (inactive)
GI50 [19]: > 100 µM (inactive)
GI50 [20]: > 100 µM (inactive)
GI50 [21]: > 100 µM (inactive)
GI50 [22]: 479 µM (inactive)
GI50 [23]: > 100 µM (inactive)
GI50 [24]: > 100 µM (inactive)
GI50 [25]: > 100 µM (inactive)
GI50 [26]: > 100 µM (inactive)
GI50 [27]: > 100 µM (inactive)
GI50 [28]: > 100 µM (inactive)
GI50 [29]: > 1000 µM (inactive)
GI50 [30]: > 100 µM (inactive)
GI50 [31]: 0.0246 µM (active)
GI50 [32]: > 100 µM (inactive)
GI50 [33]: > 100 µM (inactive)
GI50 [34]: 312 µM (inactive)
GI50 [35]: 382 µM (inactive)
GI50 [36]: > 100 µM (inactive)
GI50 [37]: > 100 µM (inactive)
GI50 [38]: > 100 µM
GI50 [39]: > 100 µM (inactive)
GI50 [40]: > 1000 µM (inactive)
GI50 [41]: > 100 µM (inactive)
GI50 [42]: > 100 µM (inactive)
GI50 [43]: > 100 µM (inactive)
GI50 [44]: 31.9 µM (inactive)
GI50 [45]: > 100 µM (inactive)
GI50 [46]: > 100 µM (inactive)
GI50 [47]: 493 µM (inactive)
GI50 [48]: > 1000 µM (inactive)
GI50 [49]: > 100 µM (inactive)
GI50 [50]: 180 µM (inactive)
GI50 [51]: > 100 µM (inactive)
GI50 [52]: > 100 µM (inactive)
GI50 [53]: > 100 µM (inactive)
GI50 [54]: > 100 µM (inactive)
GI50 [55]: > 100 µM (inactive)
GI50 [56]: 266 µM (inactive)
GI50 [57]: > 100 µM (inactive)
GI50 [58]: > 100 µM (inactive)
